US20250134882A1, “PROTEIN TYROSINE PHOSPHATASE INHIBITORS AND USES THEREOF” (Nerio Therapeutics, Inc., priority 2022, published 2025)

How the values were obtained:
[1] = test system: murine B16F10 melanoma cell line; experiment: B16F10 IFNγ-induced cellular growth inhibition assay (xCELLigence RTCA); assay type: cell-based; details: Mus musculus, B16-F10, 48 h; read-out: B16 IFNγ Mediated Growth Inhibition Assay: AVG IC50
Procedure: Example B: B16F10 Cellular Growth Inhibition Assay Compound activity was determined using an interferon gamma (IFNγ)-induced cellular growth inhibition assay with the murine B16F10 melanoma cell line on an Agilent xCELLigence Real-Time Cell Analysis platform (RTCA). RTCA E-Plate View 96 plates (Agilent, 300601010) were pre-equilibrated with 50 μL of assay media (DMEM+10% FBS, Gibco 10566-024, Gibco 10082-147) at 37° C. in a humidified incubator before taking an initial measurement of impedance (sweep). […] Cells were incubated at room temperature for 20 min to allow cells to settle before placing them in the xCELLigence reader and incubating overnight at 37° C., sweeping wells every 15 minutes. After 24 hours, well readings were paused, plates were removed from the incubator and compounds were added using a Tecan D300e dispenser. […] Assay plates were placed in the xCELLigence reader and swept every 15 minutes. After 48 hours, well readings were normalized to the time point immediately preceding compound addition and the area under the growth curve (AUC) was calculated by the RTCA software and exported.

[2] = biological target: full-length human PTPN2 (TC45) (1-387) protein (Homo sapiens (Human), UniProt P17706); experiment: Enzymatic assay with full-length PTPN2 and DiFMUP substrate; assay type: biochemical; details: 0.5 nM PTPN2, 100 μM DiFMUP, 30 min at room temperature
full-length human PTPN2 (TC45) (1-387) protein, sequence (P17706 other isoform, or with tags, fused parts or gaps): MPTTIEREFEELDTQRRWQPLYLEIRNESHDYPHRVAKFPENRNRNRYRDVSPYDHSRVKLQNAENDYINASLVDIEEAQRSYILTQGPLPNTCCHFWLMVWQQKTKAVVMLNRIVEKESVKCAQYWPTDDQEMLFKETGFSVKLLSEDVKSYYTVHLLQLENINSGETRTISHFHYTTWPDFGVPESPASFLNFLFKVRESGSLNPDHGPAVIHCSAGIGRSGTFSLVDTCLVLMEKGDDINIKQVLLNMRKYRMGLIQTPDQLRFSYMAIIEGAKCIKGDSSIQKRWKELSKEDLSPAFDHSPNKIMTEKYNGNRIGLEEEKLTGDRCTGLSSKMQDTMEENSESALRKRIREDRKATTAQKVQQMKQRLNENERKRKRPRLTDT
Excerpt: Compounds were subsequently added using a Tecan D300e dispenser. […] A four-parameter curve fit was used to determine IC50 values from % inhibition data.

Structure (SMILES)	IC50 [1] [µM]	IC50 [2] [µM]
CC(C)CCN[C@@H]1C[C@H]2C[C@@H]1c1c2cc(O)c(N2CC(=O)NS2(=O)=O)c1F [Example 3, 5-((1R,3R,4R)-5-fluoro-7-hydroxy-3-(isopentylamino)-1,2,3,4-tetrahydro-1,4-methanonaphthalen-6-yl)-1,2,5-thiadiazolidin-3-one 1,1-dioxide]	7.82	
CC(C)CCNC1CCc2nc(O)c(N3CC(=O)NS3(=O)=O)c(F)c2C1 (centres unmarked) [Example 4, 5-(4-fluoro-2-hydroxy-6-(isopentylamino)-5,6,7,8-tetrahydroquinolin-3-yl)-1,2,5-thiadiazolidin-3-one 1,1-dioxide]		70.8
